Data reported in ChEMBL document CHEMBL3864193 (Bioorg Med Chem, 2016).

How the values were obtained:
[1] = Cytotoxicity against human A549 cells after 72 hrs by MTT assay; assay type: functional, cell-based; details: A549, 72 h
[2] = target: Vascular endothelial growth factor receptor 2 (Homo sapiens, UniProt P35968); assay: Inhibition of VEGFR2 (unknown origin) by mobility shift/LanthaScreen assay
[3] = cells; details: Homo sapiens, MCF7, 72 h
Description: Cytotoxicity against human MCF7 cells after 72 hrs by MTT assay

[4] = cells; details: Homo sapiens, PC-3, 72 h
Description: Cytotoxicity against human PC3 cells after 72 hrs by MTT assay

Chain of Vascular endothelial growth factor receptor 2 (P35968 whole entry): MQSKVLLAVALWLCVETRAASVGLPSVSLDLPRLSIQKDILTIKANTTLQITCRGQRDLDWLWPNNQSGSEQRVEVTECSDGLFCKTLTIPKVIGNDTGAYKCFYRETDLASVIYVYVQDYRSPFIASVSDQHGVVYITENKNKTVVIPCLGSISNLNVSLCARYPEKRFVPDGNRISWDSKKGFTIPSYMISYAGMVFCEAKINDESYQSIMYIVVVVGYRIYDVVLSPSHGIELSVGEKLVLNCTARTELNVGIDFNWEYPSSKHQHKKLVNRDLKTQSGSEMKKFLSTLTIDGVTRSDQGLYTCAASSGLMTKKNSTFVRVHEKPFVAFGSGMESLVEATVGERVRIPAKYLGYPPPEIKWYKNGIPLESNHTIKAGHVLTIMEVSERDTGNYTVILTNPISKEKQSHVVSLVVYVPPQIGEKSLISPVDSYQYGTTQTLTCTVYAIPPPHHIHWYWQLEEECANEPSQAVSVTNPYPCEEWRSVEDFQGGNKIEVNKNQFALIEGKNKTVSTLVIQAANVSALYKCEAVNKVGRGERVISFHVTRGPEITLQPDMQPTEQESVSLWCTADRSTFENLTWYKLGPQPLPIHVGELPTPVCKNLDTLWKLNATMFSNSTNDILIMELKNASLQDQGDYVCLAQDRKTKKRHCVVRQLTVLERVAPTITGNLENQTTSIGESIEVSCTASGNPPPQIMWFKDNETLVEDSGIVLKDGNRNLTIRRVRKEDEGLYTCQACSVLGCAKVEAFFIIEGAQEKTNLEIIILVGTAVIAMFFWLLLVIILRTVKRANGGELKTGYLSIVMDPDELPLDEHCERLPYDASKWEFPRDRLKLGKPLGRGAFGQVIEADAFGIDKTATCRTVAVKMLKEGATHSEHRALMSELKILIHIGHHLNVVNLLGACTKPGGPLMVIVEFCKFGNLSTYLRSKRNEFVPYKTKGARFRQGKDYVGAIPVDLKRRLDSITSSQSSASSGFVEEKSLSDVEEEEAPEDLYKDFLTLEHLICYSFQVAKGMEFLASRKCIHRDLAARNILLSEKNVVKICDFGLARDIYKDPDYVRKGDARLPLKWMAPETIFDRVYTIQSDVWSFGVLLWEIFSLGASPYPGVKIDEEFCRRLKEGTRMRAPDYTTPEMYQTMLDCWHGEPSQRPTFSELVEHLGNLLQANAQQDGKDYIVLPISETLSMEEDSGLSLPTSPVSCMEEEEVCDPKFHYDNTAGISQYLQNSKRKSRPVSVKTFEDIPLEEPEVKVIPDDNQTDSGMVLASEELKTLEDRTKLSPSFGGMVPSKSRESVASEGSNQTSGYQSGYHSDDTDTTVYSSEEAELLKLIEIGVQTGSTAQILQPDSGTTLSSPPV

| Compound | IC50 [1] [µM] | IC50 [2] [µM] | IC50 [3] [µM] | IC50 [4] [µM] |
| --- | --- | --- | --- | --- |
| CCc1ccc(-c2cc(C(=O)Nc3ccc(Oc4ccnc(C(=O)NC)c4)c(F)c3)ncn2)cc1 | 3.39 | 1.2 | 7.63 | 15.6 |
| CNC(=O)c1cc(Oc2ccc(NC(=O)c3cc(-c4ccccc4)ncn3)cc2F)ccn1 | 23.2 | – | 32.4 | 44.3 |
| CNC(=O)c1cc(Oc2ccc(NC(=O)c3cc(-c4ccc(F)cc4)ncn3)cc2F)ccn1 | > 100 | – | > 100 | > 100 |
| CNC(=O)c1cc(Oc2ccc(NC(=O)c3cc(-c4ccc(OC)cc4)ncn3)cc2F)ccn1 | 34.5 | – | 46.2 | 56.2 |
| CNC(=O)c1cc(Oc2ccc(NC(=O)c3cc(-c4ccc(F)cc4)ncn3)cc2)ccn1 | > 100 | – | > 100 | > 100 |
| CNC(=O)c1cc(Oc2ccc(NC(=O)c3nccc(-c4ccc([N+](=O)[O-])cc4)n3)cc2)ccn1 | > 100 | – | > 100 | > 100 |
| CCc1ccc(-c2cc(C(=O)Nc3ccc(Oc4ccnc(C(=O)NC)c4)cc3)ncn2)cc1 | 13.3 | 3.6 | 6.35 | 29.3 |
| CNC(=O)c1cc(Oc2ccc(NC(=O)c3cc(-c4ccccc4)ncn3)cc2)ccn1 | 27.1 | – | 18.2 | 44.2 |
| CNC(=O)c1cc(Oc2ccc(NC(=O)c3nccc(-c4ccc(C)cc4)n3)cc2F)ccn1 | 33.2 | – | 69.2 | 28.4 |
| CNC(=O)c1cc(Oc2ccc(NC(=O)c3cc(-c4ccc(OC)cc4)ncn3)cc2)ccn1 | 13.5 | – | 29.2 | 38.8 |
| CNC(=O)c1cc(Oc2ccc(NC(=O)c3cc(-c4ccc(Cl)cc4)ncn3)cc2)ccn1 | > 100 | – | > 100 | > 100 |
| CNC(=O)c1cc(Oc2ccc(NC(=O)c3nccc(-c4ccc(OC)cc4)n3)cc2)ccn1 | 11.1 | – | 35.2 | 14.2 |
| CNC(=O)c1cc(Oc2ccc(NC(=O)c3nccc(-c4cccc(Cl)c4)n3)cc2)ccn1 | > 100 | – | > 100 | 20.8 |
| CNC(=O)c1cc(Oc2ccc(NC(=O)c3cc(-c4ccc(C)cc4)ncn3)cc2)ccn1 | > 100 | – | 34.6 | > 100 |
| CNC(=O)c1cc(Oc2ccc(NC(=O)c3nccc(-c4ccc(C)cc4)n3)cc2)ccn1 | 28.4 | – | 44.2 | 13.1 |
| CNC(=O)c1cc(Oc2ccc(NC(=O)c3nccc(-c4ccccc4)n3)cc2)ccn1 | 26.2 | – | 39.1 | 7.31 |
| CNC(=O)c1cc(Oc2ccc(NC(=O)c3cc(-c4ccc(C(F)(F)F)cc4)ncn3)cc2)ccn1 | > 100 | – | > 100 | > 100 |
| CNC(=O)c1cc(Oc2ccc(NC(=O)c3cc(-c4ccc(C(F)(F)F)cc4)ncn3)cc2F)ccn1 | > 100 | – | > 100 | > 100 |
| CNC(=O)c1cc(Oc2ccc(NC(=O)c3nccc(-c4ccc(OC)cc4)n3)cc2F)ccn1 | 16.6 | – | > 100 | 24.3 |
| CNC(=O)c1cc(Oc2ccc(NC(=O)c3cc(-c4ccc(Br)cc4)ncn3)cc2)ccn1 | > 100 | – | > 100 | > 100 |
| CNC(=O)c1cc(Oc2ccc(NC(=O)c3cc(-c4ccc(C)cc4)ncn3)cc2F)ccn1 | 13.2 | – | 19.2 | 40.2 |
| CNC(=O)c1cc(Oc2ccc(NC(=O)c3cc(-c4ccc(Cl)cc4)ncn3)cc2F)ccn1 | > 100 | – | > 100 | > 100 |
| CNC(=O)c1cc(Oc2ccc(NC(=O)c3cc(-c4ccc(Br)cc4)ncn3)cc2F)ccn1 | > 100 | – | > 100 | > 100 |
